Patent US20210322509A1, “Methods for Reducing Perinatal Morbidity and / or Mortality” (CHU SAINTE-JUSTINE, priority 2016, published 2021)
Non-standard residues stand in square brackets, D forms with d. Residues, ends and D or L forms follow the SMILES beside them. ξ: configuration not given here. dThr(3ξ) = CC(O)[C@@H](N)C(=O)O

What was measured:
[1] = test system: timed-pregnant CD-1 mice exposed to IL-1β; assay: Intrauterine IL-1β-induced perinatal inflammation model: neonatal survival and fetal growth; format: in vivo; details: for neonatal survival at birth: pups from IL-1β-treated dams (1 μg i.u., G16.5), compound 1 1 mg/Kg/12 h or Kineret 4 mg/Kg/12 h s.c., relative to vehicle
Protocol: Timed-pregnant CD-1 mice were exposed to 1 μg of IL-1β at 16.5 days of gestation (G16.5). Compound 1 (Cmpd 1), Kineret or vehicle was injected subcutaneously in the neck skin 30 minutes before stimulation with IL-1β, and mice delivery was assessed every hour until term (G19-G19.5).
One-way ANOVA compared to IL-1β+Veh. ***p<0.001. Control (n=9), sham (n=7), IL-1β (n=26), IL-1β+Compound 1 (n=22), IL-1β+Kin (n=11).
Intrauterine […] perinatal inflammation model. Timed-pregnant CD-1 mice at 16.5 days of gestation were steadily anesthetized with an isoflurane mask. After body hair removal from the peritoneal area, a 1.5 cm-tall median incision was performed with surgical scissors in the lower abdominal wall. The lower segment of the right uterine horn was then exposed and 1 μg of IL-1β was injected between two fetal membranes with care of not entering the amniotic cavity. The abdominal muscle layer was sutured and the skin closed with clips. One hundred μL of Compound 1 (1 mg/Kg/12 h), Kineret® (4 mg/Kg/12 h) or vehicle (sterile water) was injected subcutaneously in the neck 30 minutes before stimulation with IL-1β (to allow distribution of drugs to target tissues). Mice delivery was assessed every hour until term (G19-G19.5). Immediately after delivery, neonatal survival was assessed. Some pregnant mice were sacrificed before birth (24 h after the surgery) to either 1) perform caesarean section and photograph fetuses; 2) collect amniotic fluids; and 3) collect placentas. Only tissues and fluids from gestational sacs closer to the cervical end of the uterus were collected to ensure proximity with the IL-1β injection site. Tissues and fluids were snap-frozen in liquid nitrogen and kept at −80° C. for subsequent RNA purification or protein quantification by ELISA.

[2] = test system: lungs of pups from IL-1β-treated dams; assay: Lung histology (alveoli count, architecture) at PT15; format: in vivo, mice; details: for damages to lung architecture caused by IL-1β: histology
Protocol: One-way ANOVA compared to IL-1β+Veh. *p<0.05, ***p<0.001. Sham (n=6 pups), IL-1β (n=3 pups), IL-1β+Compound 1 (n=6 pups), IL-1β+Kin (n=8 pups).
(§1) Histology. Intestines (from ileum to rectum) and lungs of post-term (PT) 15 mice were collected and fixed in 10% formalin during >48 h and were coated in paraffin. Samples were cut with a microtome (thickness=[…]) and mounted on lamella. Intestines were colored using hematoxylin-phloxine-saffron (HPS), whereas lungs were colored using H&E. Images were taken with a slidescanner (Axioscan®). Quantification of images was performed under blind evaluation of groups using Zen2 software.
The effect of gestational inflammation on the development of the exposed fetuses was studied. At post-term day (PT) 15, the pups from IL-1β-treated dams were sacrificed, and histological analysis of major organs known to be affected by prematurity/gestational inflammation (the lung, the intestines and the brain) was performed. For the lung, a blind count of alveoli was performed using ImageJ.

[3] = test system: intestines of pups from IL-1β-treated dams; assay: Histology of ileum and colon (crypts, resident lymph nodes); format: in vivo, mice; details: for atrophies in intestinal crypts of the ileum: histology; for number of resident lymph nodes in the colon / size of resident lymph nodes in the colon: relative to vehicle
Protocol: FIG. 6A to 6D show representative histological analyses of the ileum of neonates from sham (FIG. 6A) and IL-1β-treated dams administered with vehicle (FIG. 6B), Compound 1 (FIG. 6C) or Kineret (FIG. 6D). Arrows indicate crypts. Scale, […].
FIGS. 7A and 7B show the number and size, respectively, of resident lymph nodes in the colon of neonates from sham and IL-1β-treated dams administered with vehicle, Compound 1 or Kineret. Sham (n=6 pups), IL-1β (n=3 pups), IL-1β+Compound 1 (n=6 pups), IL-1β+Kin (n=8 pups).
as §1
Potential damages to the ileum and in the colon were evaluated by histologic analyses. In the ileum, pups from IL-1β-treated dams administered with vehicle had consistent atrophies in their intestinal crypts (FIG. 6B), and this was not observed following administration of compound 1 (FIG. 6C) or Kineret® (FIG. 6D). In the colon, the number of resident lymph nodes per cm, and their size, were measured. Since lymph nodes are part of the innate immunity and play an important role in the immune surveillance of the colon, the number and size of resident lymph nodes is a marker of the immune integrity/health of the intestine.

Molecule	IL-1β-induced growth arrest of fetuses ([1]; caesarean section of dams after 24 h exposition to intrauterine IL-1β)	neonatal survival at birth [1]	reducing neonatal death, inflammation and inflammation-mediated damages in neonatal organs, compared with Kineret ([1]; summary statement)	damages to lung architecture caused by IL-1β [2]	alveoli count per mm^2 ([2]; pups from IL-1β-treated dams)	number of alveoli per mm^2 compared with Kineret-treated group ([2]; pups from IL-1β-treated dams)	atrophies in intestinal crypts of the ileum [3]	number of resident lymph nodes in the colon [3]	size of resident lymph nodes in the colon [3]
CC(C)C[C@@H](NC(=O)[C@@H](CCC(=O)O)NC(=O)[C@H](NC(=O)[C@H](NC(=O)[C@@H](Cc1ccc(O)cc1)NC(=O)[C@H](N)CCCNC(=N)N)C(C)O)C(C)C)C(=O)N[C@H](C)C(N)=O (stereo partly drawn) [compound 1] (H-[dR][dY][dThr(3ξ)][dV][dE][dL][dA]-NH2)	prevents this detrimental effect	significantly increased neonatal survival	significantly more effective	prevents the damages to lung architecture	completely restored the alveoli count	significantly higher	not observed	prevented	prevented
Kineret: recombinant form of the human interleukin-1 receptor antagonist (IL-1Ra), purchased from Swedish Orphan Biovitrum AB	–	but not Kineret®, significantly increased neonatal survival	–	a more modest effect	only partially restored the alveoli count	–	not observed	not increased at statistically significant levels	significant increase
